One substance from patent US9861647B2 (Prelief Inc., priority 2007, dated 2018) can be followed below.

Entries after “also recorded” stand apart in the source; their conditions may differ.

Data set [1] deals with nosebleeds. The data set is described as follows: Stanching nosebleeds at higher CGP levels. It counts as in vivo. As to conditions: higher levels tested, about 7.5% (w/w) or above.
Data set [2] has as its system histamine, leukotriene C4/D4/E4, prostaglandin D2 and E2 in nasal lavage fluid. Nature of the data set: Mediators (histamine, leukotrienes, prostaglandins) in nasal lavage fluid after intranasal ragweed challenge. The class given is in vivo, Beagle dogs. As for the experimental part:
(§1) Ragweed sensitized beagle dogs (n=5) with preexisiting nasal and airway allergic responses were utilized in the animal study described in this Example. Dogs served as their own control and initially were treated with vehicle (sterile water) and then rested for 5 weeks prior to receiving the test compound. […] Based on the aerosol testing only 1.6 mg/dog could be delivered by inhalation during a 15 minute exposure (20 mg/ml solution). In addition, each dog received twice daily an intranasal instillation of 30 mg (2×375 μl of 20 mg/ml in each nostril) given within 30 minutes after the end of the inhalation exposures.
FIG. 1 summarizes the study design for characterizing the effects of CGP on rhinitis symptoms in ragweed sensitized Beagle dogs. The baseline nasal cavity volume was first measured 3 days (day −3) before each of the vehicle and CGP treatments. The dogs were treated with vehicle or CGP (day 0) twice daily with the target dosage described above. Three days into the vehicle or CGP treatment, nasal challenge with ragweed was performed (day 3). Treatment with vehicle or CGP continued during the assessment of rhinitis endpoints, e.g., total treatment duration=6 days (day 0-5) for each of the vehicle and CGP treatments. There were 5 weeks following the first intranasal RW challenge during the vehicle treatment and the CGP treatment.
(§2) Vehicle (sterile water) was given twice daily by inhalation (15 minutes) followed by intranasal instillation of water (2×250 μl in each nostril). […] The test-article and the compound solution were prepared in the morning of each treatment day. Vehicle and test-article were administered by inhalation and intranasal instillation twice a day. Dosing of vehicle or test compound was achieved by utilizing a face mask connected to a jet nebulizer for inhalation delivery followed by intranasal instillation in both nostrils using an Accuspray device.
Rhinitis assessments were conducted using one or more of the following tests. • Nasal cavity geometry (AcR) pre/post antigen challenge in both nares • 1. time 0 (just prior to RW instillation) • 2. at 15, 30, 45, 60, 75, 90 min, 24 h and 48 h post RW challenge • Nasal lavage of both nares at baseline and at 24 h (Day 4) and 48 h (Day 5) post RW instillation and only one side at 15, 30, 45 and 60 min post RW challenge (Day 3) • 1. Release of histamine, leukotrienes and prostaglandins in nasal lavage fluid baseline (prior to compound or RW treatment/challenge), 15, 30, 45, 60 min and 24 h post RW instillation • 2. Nasal lavage cells from the baseline (Day-3), 24 h (Day 4) and 48 h (Day 5) hour lavage were used for determination of inflammatory cell differentials • 3. Excess nasal lavage fluid was frozen for analysis of cytokines. • Cardiovascular readouts (heart rate, O2 saturation, body temperature) throughout nasal congestion measurement.
While under anesthesia a flexible plastic catheter was inserted several centimeters into the dog's nare. The nare was washed with a phosphate buffered saline solution (PBS; 3×5 ml for collection of cells [baseline, 24 and 48 h post RW challenge]; 1×5 ml for collection of fluid for mediators [15, 30, 45, and 60 minutes post RW challenge]).
Total nasal cells were determined using an automatic cell counter. Cells were spun onto slides by cytocentrifugation and stained with a modified Wright-Giemsa stain. At least four hundred inflammatory cells (or less if applicable) were counted and the percentage of specific cell types determined for each animal (slides in duplicates, 200 cells per slide). The first lavage fluid sample (after centrifugation) was frozen separately for mediator analysis. Mediator analysis for histamine, leukotrienes, and prostaglandins were performed according to the kit manufacturer instructions (Immunotech—Beckman Coulter Company #IM2015, Neogen Corporation #406410, Cayman Chemical Company: PGE2—#514010, PGD2—#512011, respectively). […]

In data set [3] the test system is ragweed sensitized Beagle dogs. The data set is described as follows: Ragweed-induced nasal congestion, nasal cavity volume by acoustic rhinometry. The class given is in vivo. From the text: Beagle dogs immunized with ragweed (RW) as puppies develop allergic immune responses. These allergic dogs show elevated total and specific serum IgE and increased numbers of eosinophils in their blood and lungs, as well as an increase in airway resistance and a decrease in dynamic compliance after a challenge with RW by inhalation or local instillation in defined lung lobes. Additionally, these dogs develop increased nasal congestion and inflammation following RW challenge in the nose.
Ragweed sensitized beagle dogs (n=5) with preexisiting nasal and airway allergic responses were utilized in the animal study described in this Example. Dogs served as their own control and initially were treated with vehicle (sterile water) and then rested for 5 weeks prior to receiving the test compound. […] Based on the aerosol testing only 1.6 mg/dog could be delivered by inhalation during a 15 minute exposure (20 mg/ml solution). […]
FIG. 1 summarizes the study design for characterizing the effects of CGP on rhinitis symptoms in ragweed sensitized Beagle dogs. The baseline nasal cavity volume was first measured 3 days (day −3) before each of the vehicle and CGP treatments. […]
Treatment occurred on Days 0 to 5 (only AM on Day 5). […] The pH of the compound (as administered for nasal inhalation) was recorded prior to administration. […]
Acoustic rhinometery was measured on experimental Days 3, 4, and 5. […]

The test system of data set [4] is inflammatory cells in nasal lavage. Nature of the data set: Nasal lavage cell counts and differentials after nasal ragweed challenge. It counts as in vivo, Beagle dogs. As for the experimental part:
as §1
FIG. 1 summarizes the study design for characterizing the effects of CGP on rhinitis symptoms in ragweed sensitized Beagle dogs. The baseline nasal cavity volume was first measured 3 days (day −3) before each of the vehicle and CGP treatments. The dogs were treated with vehicle or CGP (day 0) twice daily with the target dosage described above. […]
Total nasal cells were determined using an automatic cell counter. […] At least four hundred inflammatory cells (or less if applicable) were counted and the percentage of specific cell types determined for each animal (slides in duplicates, 200 cells per slide). […]
Changes in nasal cavity volume or mediator levels were assessed by two way analysis of variance (ANOVA) with Bonferroni post-test. […]

Data set [5] can be described thus: pH of the nebulizer solution. It counts as physicochemical. The following applies: 20 mg/ml in sterile water. As for the experimental part: as §2
Treatment occurred on Days 0 to 5 (only AM on Day 5). Vehicle and compound were delivered in the morning (8:15-9:10 am) and the afternoon (2:00-3:30 pm). On days when acoustic rhinometry procedures were performed (Days 0), the morning dosing occurred such that the procedures were performed within 1-6 h after dosing. The pH of the compound (as administered for nasal inhalation) was recorded prior to administration. As identified in the aerosol exposure the average pH of the nebulizer solution was 8.85.

The mark [6] stands for this setting: before and after ragweed challenge, vs vehicle, n=5, One Way Anova, Dunnett's posttest.

With calcium glycerophosphate, the stanching nosebleeds result in data set [1] is listed as “may help in stanching nosebleeds”. In data set [2] (setting [6]), the “histamine levels in nasal lavage fluid” value is “no statistical significance was reached”, the “levels of leukotriene C4/D4/E4 in nasal lavage fluid” value is “no statistical significance was reached”, the “prostaglandin D2 levels in nasal lavage fluid” value is “no statistical significance was reached” and the “prostaglandin E2 levels in nasal lavage fluid” value is given as “Levels of PGE2 decreased following ragweed challenge; also recorded: no statistical significance was reached”. For the same substance, in data set [2] (compound vs vehicle treatment, statistical significance not reached), the “histamine, leukotriene and prostaglandin D2 and E2 levels in nasal lavage fluid” value was “partially altered”. For the same substance, the “prostaglandin E2 levels normalized to baseline (T0 = 100%)” value in data set [2] (vs vehicle, Two Way Anova p<0.009, no significance at individual time points) is listed as “a greater reduction in PGE2 levels following RW challenge; also recorded: significantly attenuated compared to vehicle treatment”. In addition, in data set [2] (vs vehicle, n=5), the “AUC of histamine levels between 0 and 60 min” value is given as “histamine levels decreased in two of the 5 dogs, no statistical significance was reached”; the “AUC of prostaglandin D2 levels between 0 and 60 min” value was “prostaglandin D2 levels decreased in three dogs and increased in two dogs and no statistical significance was reached”. The “attenuation of nasal congestion at individual time points” value in data set [3] (15 to 90 minutes post ragweed, Bonferroni posttest p<0.05) was “statistically significant at all time points from 15 to 90 minutes post ragweed”. Besides, the “AUC of the change in nasal cavity volume between 0 and 90 min” value in data set [3] (vs vehicle control, n=5, Paired t-test p=0.0092) was “significantly increased”. Moreover, the “levels of macrophages in nasal lavage” value in data set [4] (following treatment, not detectable following vehicle) is recorded as “negligible levels”. Moreover, the “number of inflammatory cells in the nasal lavage” value in data set [4] (pretreatment vs vehicle, Days 1 and 2 after nasal RW challenge) was “did tend to reduce the lung inflammatory cells compared to vehicle treatment, although none of the endpoints reached statistical significance”. The “average pH of the nebulizer solution” value in data set [5] stood at 8.85.
